Experimental data from patent publication US20160201063A1, “EPIGENETIC REGULATORS OF FRATAXIN” (RANA THERAPEUTICS, INC., priority 2013, published 2016).
Structures can show the parent of a compound that is named as a salt.

Assays:
FXN mRNA [1] = experiment: Screen of library of eighty epigenetic inhibitors in GM03816 FRDA diseased fibroblasts, FXN mRNA fold change; format: cell-based, human; details: for fold induction at 1 µM / fold induction at 5 µM: Homo sapiens, Fibroblast, 72 h; for fold induction at 1 µM: read-out: 3816 1 uM (FXN mRNA fold change); for fold induction at 5 µM: read-out: 3816 5 uM (FXN mRNA fold change)
Procedure: FXN RNA levels are indicated on the y-axis and the inhibitors used at both 1 μM and 5 μM are shown on the x-axis.
A screen of a library of eighty epigenetic inhibitors (Cayman Chemical) was performed in GM03816 FRDA fibroblasts to identify epigenetic regulators that upregulate FXN expression.

FXN mRNA [2] = experiment: Screen of epigenetic inhibitors in GM0321 normal fibroblasts, FXN RNA levels; format: cell-based, human; details: for fold induction at 1 µM / fold induction at 5 µM: Homo sapiens, Fibroblast, 72 h; for fold induction at 1 µM: read-out: FXN mRNA fold change, 321B 1 uM; for fold induction at 5 µM: read-out: FXN mRNA fold change, 321B 5 uM
[3] = GM03816 FRDA diseased fibroblasts, 1 uM inhibitor, 3 days of treatment
[4] = GM03816 FRDA diseased fibroblasts, 5 uM inhibitor, 3 days of treatment
[5] = GM0321 normal fibroblasts, 1 uM inhibitor, 3 days of treatment
[6] = GM0321 normal fibroblasts, 5 uM inhibitor, 3 days of treatment

SMILES	3816 1 uM (FXN mRNA fold change) (FXN mRNA [1]; [3])	3816 5 uM (FXN mRNA fold change) (FXN mRNA [1]; [4])	FXN mRNA fold change, 321B 1 uM (FXN mRNA [2]; [5])	FXN mRNA fold change, 321B 5 uM (FXN mRNA [2]; [6])	also measured
Cl.N[C@@H]1C[C@H]1c1ccccc1 (racemic) [2-PCPA (hydrochloride)]	1.058	0.8786	0.7149	0.7888	–
O=C(O)c1cccc2ccccc12 [1-Naphthoic Acid]	–	–	–	–	fold induction at 1 µM (FXN mRNA [1]; [3]): 1.05; fold induction at 5 µM (FXN mRNA [1]; [4]): 0.869; fold induction at 1 µM (FXN mRNA [2]; [5]): 0.819; fold induction at 5 µM (FXN mRNA [2]; [6]): 0.72
CCOC(=O)c1ccnc(C(=O)OCC)c1 [2,4-DPD]	1.179	0.9456	0.877	0.7372	–
O=C(O)c1ccnc(C(=O)O)c1 [2,4-Pyridinedicarboxylic Acid]	–	–	–	–	fold induction at 1 µM (FXN mRNA [1]; [3]): 0.885; fold induction at 5 µM (FXN mRNA [1]; [4]): 0.888; fold induction at 1 µM (FXN mRNA [2]; [5]): 0.458; fold induction at 5 µM (FXN mRNA [2]; [6]): 0.645
Nc1nccc2c1ncn2C1C=C(CO)C(O)C1O (stereo not shown) [3-Deazaneplanocin A]	0.1514	0.2102	0.2641	0.1265	–
NC(=O)c1cccc(N)c1 [3-amino Benzamide]	1.289	1.357	1.089	1.365	–
CC(C)[C@H](C(=O)Nc1ccc(C(=O)NO)cc1)c1ccccc1 [(S)-HDAC-42]	0.2419	0.1894	–	0.6941	–
CNCc1ccc(-c2[nH]c3cc(F)cc4c3c2CCNC4=O)cc1 [AG-014699]	–	–	–	–	fold induction at 1 µM (FXN mRNA [1]; [3]): 1.06; fold induction at 5 µM (FXN mRNA [1]; [4]): 0.892; fold induction at 1 µM (FXN mRNA [2]; [5]): 0.895; fold induction at 5 µM (FXN mRNA [2]; [6]): 1
N#C/C(=C\c1ccc(-c2cc(Cl)ccc2Cl)o1)C(=O)Nc1cccc2ncccc12 [AGK2]	1.206	1.101	1.115	1.053	–
O=C(Nc1ccc2c(O)cc(S(=O)(=O)O)cc2c1)Nc1ccc2c(O)cc(S(=O)(=O)O)cc2c1 [AMI-1]	0.5579	0.566	–	0.4073	–
CCC(=O)CCCCC[C@@H]1NC(=O)[C@H]2CCCCN2C(=O)[C@H]([C@@H](C)CC)NC(=O)[C@H](Cc2cn(OC)c3ccccc23)NC1=O [Apicidin]	–	–	–	–	fold induction at 1 µM (FXN mRNA [1]): 0.0791; fold induction at 5 µM (FXN mRNA [1]): 0.435; fold induction at 1 µM (FXN mRNA [2]): 0.119; fold induction at 5 µM (FXN mRNA [2]): 0.397
NC(=O)c1ccc(I)c([N+](=O)[O-])c1 [BSI-201]	–	–	–	–	fold induction at 1 µM (FXN mRNA [1]; [3]): 1.13; fold induction at 5 µM (FXN mRNA [1]; [4]): 0.844; fold induction at 1 µM (FXN mRNA [2]; [5]): 1.03; fold induction at 5 µM (FXN mRNA [2]; [6]): 0.985
CN(C)c1ccc(C(=O)NCCCCCC(=O)NO)cc1 [CAY10398]	0.6921	0.2339	0.5049	0.2106	–
Nc1ccccc1NC(=O)CCCCCCC(=O)Nc1ccccc1 [CAY10433]	0.8309	0.8827	1.03	0.7782	–
COCCCn1c(N)c(C(=O)NC2CCCC2)c2nc3ccccc3nc21 [CAY10591]	1.311	1.377	0.9828	1.437	–
CC(C)(C)OC(=O)Nc1ccc(-c2cc(C(=O)NCCCCCCC(=O)NO)no2)cc1 [CAY10603]	0.5205	0.07004	0.3592	–	–
CCCCCOc1ccc(/C=C\c2cccc(O)c2C(=O)O)cc1 [CAY10669]	0.8709	1.074	0.7796	0.3094	–
O=C(/C=C/c1cccc(C(=O)NO)c1)NO [CBHA]	0.4678	0.1327	0.7208	0.4875	–
O=C(Nc1ccc(Cl)cc1)C1CCCN(C(=O)c2cc(C(F)(F)F)cc(C(F)(F)F)c2)C1 (stereo not shown) [CCG-100602]	1.147	1.213	0.8325	0.9592	–
Nc1cc(F)ccc1NC(=O)c1ccc(CNC(=O)/C=C/c2cccnc2)cc1 [Chidamide]	–	–	–	–	fold induction at 1 µM (FXN mRNA [1]; [3]): 0.924; fold induction at 5 µM (FXN mRNA [1]; [4]): 0.968; fold induction at 1 µM (FXN mRNA [2]; [5]): 0.835; fold induction at 5 µM (FXN mRNA [2]; [6]): 0.799
NC(=O)[C@H](CCCN=C(N)CCl)NC(=O)c1ccccc1 [Cl-Amidine]	1.153	0.9028	0.9432	0.9931	–

SMILES	3816 1 uM (FXN mRNA fold change) (FXN mRNA [1]; [3])	3816 5 uM (FXN mRNA fold change) (FXN mRNA [1]; [4])	FXN mRNA fold change, 321B 1 uM (FXN mRNA [2]; [5])	FXN mRNA fold change, 321B 5 uM (FXN mRNA [2]; [6])	also measured
COC(=O)CNC(=O)C(=O)OC [DMOG]	0.9685	0.9131	0.7317	0.9433	–
CN(C)NC(=O)CCC(=O)O [Daminozide]	–	–	–	–	fold induction at 1 µM (FXN mRNA [1]): 0.824; fold induction at 5 µM (FXN mRNA [1]): 0.881; fold induction at 1 µM (FXN mRNA [2]): 1.04; fold induction at 5 µM (FXN mRNA [2]): 0.898
Nc1ncn([C@H]2C[C@H](O)[C@@H](CO)O2)c(=O)n1 [Decitabine]	–	–	–	–	fold induction at 1 µM (FXN mRNA [2]; [5]): 1.15; fold induction at 5 µM (FXN mRNA [2]; [6]): 1.53
Oc1cc(O)c2cc(O)c(-c3cc(O)c(O)c(O)c3)[o+]c2c1 [Delphinidin chloride]	–	–	–	–	fold induction at 1 µM (FXN mRNA [1]; [3]): 0.954; fold induction at 5 µM (FXN mRNA [1]; [4]): 0.885; fold induction at 1 µM (FXN mRNA [2]; [5]): 1.09; fold induction at 5 µM (FXN mRNA [2]; [6]): 1.04
O=c1oc2c(O)c(O)cc3c(=O)oc4c(O)c(O)cc1c4c23 [Ellagic Acid]	–	–	–	–	fold induction at 1 µM (FXN mRNA [1]; [3]): 0.788; fold induction at 5 µM (FXN mRNA [1]; [4]): 0.189; fold induction at 1 µM (FXN mRNA [2]; [5]): 0.675; fold induction at 5 µM (FXN mRNA [2]; [6]): 0.248
NC(=O)[C@H](CCCN=C(N)CF)NC(=O)c1ccccc1 [F-Amidine]	0.7818	0.6484	0.9152	0.9697	–
O=C(O)CCNc1cc(N2CCc3ccccc3CC2)nc(-c2ccccn2)n1 [GSK-J1 (sodium salt)]	0.8866	0.7892	0.9779	0.9423	–
O=C(O)CCNc1cc(N2CCc3ccccc3CC2)nc(-c2cccnc2)n1 [GSK-J2 (sodium salt)]	0.9711	0.9938	1.063	–	–
CCOC(=O)CCNc1cc(N2CCc3ccccc3CC2)nc(-c2ccccn2)n1.Cl [GSK-J4 (hydrochloride)]	0.927	0.8762	1.002	0.8744	–
CCOC(=O)CCNc1cc(N2CCc3ccccc3CC2)nc(-c2cccnc2)n1.Cl [GSK-J5 (hydrochloride)]	1.183	0.9451	0.8597	0.9741	–
C=C(C)[C@@H](CC=C(C)C)C[C@@]12C[C@@H](CC=C(C)C)C(C)(C)[C@@](CC=C(C)C)(C(=O)C(C(=O)c3ccc(O)c(O)c3)=C1O)C2=O [Garcinol]	–	–	–	–	fold induction at 1 µM (FXN mRNA [1]; [3]): 1.01; fold induction at 5 µM (FXN mRNA [1]; [4]): 1.09; fold induction at 1 µM (FXN mRNA [2]; [5]): 0.63; fold induction at 5 µM (FXN mRNA [2]; [6]): 1.33
O=C(O)c1ccc(O)c2ncccc12 [IOX1]	1.272	0.8722	0.9479	0.7185	–
O=C(/C=C/c1ccc(O)cc1)c1ccc(O)cc1O [Isoliquiritigenin]	–	–	–	–	fold induction at 1 µM (FXN mRNA [1]; [3]): 1.27; fold induction at 5 µM (FXN mRNA [1]; [4]): 0.963; fold induction at 1 µM (FXN mRNA [2]; [5]): 1.16; fold induction at 5 µM (FXN mRNA [2]; [6]): 1.29
O=C(NCc1ccccc1)c1c(/N=C/c2c(O)ccc3ccccc23)sc2c1CCCC2 [JGB1741]	1.006	1.17	0.9963	0.7224	–
Nc1nc(OCc2cc(Br)cs2)c2[nH]cnc2n1 [Lomeguatrib]	–	–	–	–	fold induction at 1 µM (FXN mRNA [2]; [5]): 1.05; fold induction at 5 µM (FXN mRNA [2]; [6]): 1.28
Nc1ccccc1NC(=O)c1ccc(CNC(=O)OCc2cccnc2)cc1 [MS-275]	0.2266	0.2333	–	0.2713	–
N=C1NC(=O)/C(=C/c2ccc(O)cc2)S1 [Mirin]	–	–	–	–	fold induction at 1 µM (FXN mRNA [1]): 1.06; fold induction at 5 µM (FXN mRNA [1]): 0.679; fold induction at 1 µM (FXN mRNA [2]): 1.08; fold induction at 5 µM (FXN mRNA [2]): 1.31
CN(C)CCCCC(=O)Nc1ccc(NC(=S)NC(=O)c2ccc(C(C)(C)C)cc2)cc1 [Tenovin-6]	–	–	1.23	1.282	–
O=C(c1ccc(C(=O)N2CCC(N3CCCC3)CC2)c(Nc2ccccc2)c1)N1CCC(N2CCCC2)CC1 [UNC1215]	0.6911	0.8743	–	–	–
CC(=O)Nc1ccc(NC(=S)NC(=O)c2ccc(C(C)(C)C)cc2)cc1 [tenovin-1]	–	–	1.444	–	–
